Experimental data: ChEMBL document CHEMBL1142134, “Characterization of squalene epoxidase of Saccharomyces cerevisiae by applying terbinafine-sensitive variants” (2007)
The source made the active and inactive calls. The rule behind the calls is not given here.

How the values were obtained:
[1] = tested on: Saccharomyces cerevisiae; assay: Increased sensitivity to growth inhibition in Saccharomyces cerevisiae KLN1 carrying erg1 pL37P allele after 24 hrs relative to wild type at 30 degC; assay type: functional
[2] = tested on: Saccharomyces cerevisiae; assay: Increased sensitivity to growth inhibition in Saccharomyces cerevisiae KLN1 carrying erg1 pR269G allele after 24 hrs relative to wild type at 30 degC; assay type: functional
[3] = tested on: Saccharomyces cerevisiae; assay: Growth inhibition in Saccharomyces cerevisiae KLN1 carrying erg1 pL37P allele at 0.2 ug/ml after 24 hrs at 30 degC; assay type: functional, organism-based
[4] = tested on: Saccharomyces cerevisiae; assay: Growth inhibition in Saccharomyces cerevisiae KLN1 carrying erg1 pR269G allele at 1 ug/ml after 24 hrs st 30 degC; assay type: functional, organism-based
[5] = tested on: Saccharomyces cerevisiae; assay: Growth inhibition in Saccharomyces cerevisiae KLN1 carrying erg1 pG30S allele at 0.5 ug/ml after 24 hrs at 30 degC; assay type: functional, organism-based

| Compound | Fold change [1] | Fold change [2] | Activity [3] | Activity [4] | Activity [5] |
| --- | --- | --- | --- | --- | --- |
| CC(=O)N1CCN(c2ccc(OCC3COC(Cn4ccnc4)(c4ccc(Cl)cc4Cl)O3)cc2)CC1 (centres undefined) [KETOCONAZOLE] | 5 | 2 | – | – | – |
| CN(C/C=C/c1ccccc1)Cc1cccc2ccccc12 [NAFTIFINE] | >25 | >10 | – | – | – |
| CN(C/C=C/C#CC(C)(C)C)Cc1cccc2ccccc12 [TERBINAFINE] | >10 | >5 | Active | Active | Active |
